# In ChEMBL document CHEMBL3769364, “Synthesis and structure-activity relationship studies of novel 3,9-substituted α-carboline derivatives with high cytotoxic activity against colorectal cancer cells” (Eur J Med Chem, 2016):
# Assays:
# [1] = Cytotoxicity against human COLO205 cells after 48 hrs by MTT assay; details: COLO 205, 48 h
# [2] = Cytotoxicity against human Hep3B cells after 48 hrs by MTT assay
# [3] = Cytotoxicity against human H460 cells after 48 hrs by MTT assay; details: NCI-H460, 48 h
# [4] = tested on: A498; assay: Cytotoxicity against human A498 cells after 48 hrs by MTT assay; details: A498, 48 h
# [5] = Cytotoxicity against human HL60 cells after 48 hrs by MTT assay; details: HL-60, 48 h
# [6] = tested on: Detroit 551; assay: Cytotoxicity against human Detroit 551 cells after 48 hrs by MTT assay; details: Detroit 551, 48 h
Structure (SMILES),IC50 [1] [µM],IC50 [2] [µM],IC50 [3] [µM],IC50 [4] [µM],IC50 [5] [µM],IC50 [6] [µM]
OCc1cnc2c(c1)c1ccccc1n2Cc1ccc2c(c1)OCO2,> 50,> 50,> 50,> 50,,
COC(=O)c1cnc2c(c1)c1ccccc1n2Cc1ccc(Cl)cc1Cl,> 50,> 50,> 50,> 50,> 50,> 50
OCc1cnc2c(c1)c1ccccc1n2Cc1ccccc1Cl,> 50,,,,,
COC(=O)c1cnc2c(c1)c1ccccc1n2Cc1cc(OC)cc(OC)c1,,,,> 50,,
COC(=O)c1cnc2c(c1)c1ccccc1n2Cc1ccc(Cl)cc1,> 50,> 50,> 50,> 50,> 50,> 50
COC(=O)c1cnc2c(c1)c1ccccc1n2Cc1ccco1,> 50,> 50,> 50,> 50,> 50,> 50
OCc1cnc2c(c1)c1ccccc1n2Cc1ccc(F)cc1F,,> 50,> 50,> 50,,> 50
COc1ccc(Cn2c3ccccc3c3cc(CO)cnc32)cc1,,> 50,> 50,,,> 50
COC(=O)c1cnc2c(c1)c1ccccc1n2Cc1ccsc1,> 50,> 50,> 50,> 50,> 50,> 50
COC(=O)c1cnc2c(c1)c1ccccc1n2Cc1ccc(F)c(F)c1,> 50,> 50,> 50,> 50,,
OCc1cnc2c(c1)c1ccccc1n2Cc1ccc(Cl)c(Cl)c1,,,,,,> 50
OCc1cnc2c(c1)c1ccccc1n2Cc1ccc(Cl)cc1Cl,,,,> 50,,
COc1cccc(Cn2c3ccccc3c3cc(CO)cnc32)c1,,,,,,> 50
COc1cc(Cn2c3ccccc3c3cc(C(=O)O)cnc32)cc(OC)c1,> 50,,> 50,,,> 100
COC(=O)c1cnc2c(c1)c1ccccc1n2Cc1cccc(OC)c1,> 50,,,> 50,,> 50
COC(=O)c1cnc2c(c1)c1ccccc1n2Cc1cccs1,> 50,> 50,> 50,> 50,> 50,> 50
COC(=O)c1cnc2c(c1)c1ccccc1n2Cc1cccc(Cl)c1,> 50,> 50,,> 50,,> 50
COC(=O)c1cnc2[nH]c3ccccc3c2c1,> 50,> 50,,,,> 50
OCc1cnc2c(c1)c1ccccc1n2Cc1c(Cl)cccc1Cl,> 50,,,> 50,> 50,
OCc1cnc2c(c1)c1ccccc1n2Cc1ccc(F)c(F)c1,,> 50,> 50,> 50,,
COC(=O)c1cnc2c(c1)c1ccccc1n2Cc1ccccc1Cl,> 50,> 50,> 50,> 50,,> 50
COC(=O)c1cnc2c(c1)c1ccccc1n2Cc1ccc2c(c1)OCO2,> 50,> 50,> 50,> 50,> 50,> 50
OCc1cnc2c(c1)c1ccccc1n2Cc1ccsc1,> 50,,> 50,> 50,> 50,> 50
COC(=O)c1cnc2c(c1)c1ccccc1n2Cc1cc(OC)c(OC)c(OC)c1,,,,> 50,,> 50

Structure (SMILES),IC50 [1] [µM],IC50 [2] [µM],IC50 [3] [µM],IC50 [4] [µM],IC50 [5] [µM],IC50 [6] [µM]
COC(=O)c1cnc2c(c1)c1ccccc1n2Cc1ccccc1F,> 50,> 50,> 50,> 50,> 50,> 50
OCc1cnc2c(c1)c1ccccc1n2Cc1ccc(Cl)cc1,> 50,,> 50,> 50,,> 50
COC(=O)c1cnc2c(c1)c1ccccc1n2Cc1ccc(F)cc1,> 50,> 50,> 50,> 50,> 50,> 50
COC(=O)c1cnc2c(c1)c1ccccc1n2Cc1cccc(Cl)c1Cl,> 50,> 50,> 50,> 50,,> 50
OCc1cnc2c(c1)c1ccccc1n2Cc1ccc(F)cc1,> 50,> 50,> 50,> 50,,> 50
OCc1cnc2c(c1)c1ccccc1n2Cc1ccco1,> 50,> 50,> 50,> 50,> 50,> 50
OCc1cnc2c(c1)c1ccccc1n2Cc1c(F)cccc1F,> 50,> 50,> 50,> 50,,
OCc1cnc2c(c1)c1ccccc1n2Cc1ccoc1,> 50,> 50,> 50,> 50,> 50,> 50
COC(=O)c1cnc2c(c1)c1ccccc1n2Cc1ccc(F)cc1F,> 50,> 50,> 50,> 50,> 50,> 50
COC(=O)c1cnc2c(c1)c1ccccc1n2Cc1ccccc1,> 50,> 50,> 50,> 50,> 50,> 50
COc1cc(Cn2c3ccccc3c3cc(C(=O)O)cnc32)cc(OC)c1OC,,,,,> 50,> 50
COc1cc(Cn2c3ccccc3c3cc(CO)cnc32)cc(OC)c1,,,,,,> 50
OCc1cnc2[nH]c3ccccc3c2c1,,,,,49.7,> 50
COC(=O)c1cnc2c(c1)c1ccccc1n2Cc1ccc(Cl)c(Cl)c1,> 50,> 50,,> 50,,> 50
OCc1cnc2c(c1)c1ccccc1n2Cc1cccs1,> 50,> 50,> 50,> 50,> 50,> 50
COC(=O)c1cnc2c(c1)c1ccccc1n2Cc1cc(F)ccc1F,> 50,> 50,> 50,> 50,,
COC(=O)c1cnc2c(c1)c1ccccc1n2Cc1c(Cl)cccc1Cl,> 50,> 50,> 50,> 50,> 50,> 50
OCc1cnc2c(c1)c1ccccc1n2Cc1ccccc1,,,,> 50,,
COC(=O)c1cnc2c(c1)c1ccccc1n2Cc1ccc(OC)cc1,> 50,> 50,> 50,> 50,> 50,
O=C(O)c1cnc2c(c1)c1ccccc1n2Cc1ccccc1,> 50,> 100,> 100,> 50,> 100,> 100
COC(=O)c1cnc2c(c1)c1ccccc1n2Cc1c(F)cccc1F,> 50,> 50,> 50,> 50,> 50,> 50
COC(=O)c1cnc2c(c1)c1ccccc1n2Cc1ccoc1,> 50,> 50,> 50,> 50,> 50,> 50
COC(=O)c1cnc2c(c1)c1ccccc1n2Cc1cc(F)cc(F)c1,> 50,> 50,> 50,> 50,> 50,> 50
